The target of one data set is HSA (Homo sapiens, UniProt P02768). Briefly: Differential scanning fluorimetry (DSF) thermal shift assay of HSA binding.
Sequence of HSA (P02768 25-609): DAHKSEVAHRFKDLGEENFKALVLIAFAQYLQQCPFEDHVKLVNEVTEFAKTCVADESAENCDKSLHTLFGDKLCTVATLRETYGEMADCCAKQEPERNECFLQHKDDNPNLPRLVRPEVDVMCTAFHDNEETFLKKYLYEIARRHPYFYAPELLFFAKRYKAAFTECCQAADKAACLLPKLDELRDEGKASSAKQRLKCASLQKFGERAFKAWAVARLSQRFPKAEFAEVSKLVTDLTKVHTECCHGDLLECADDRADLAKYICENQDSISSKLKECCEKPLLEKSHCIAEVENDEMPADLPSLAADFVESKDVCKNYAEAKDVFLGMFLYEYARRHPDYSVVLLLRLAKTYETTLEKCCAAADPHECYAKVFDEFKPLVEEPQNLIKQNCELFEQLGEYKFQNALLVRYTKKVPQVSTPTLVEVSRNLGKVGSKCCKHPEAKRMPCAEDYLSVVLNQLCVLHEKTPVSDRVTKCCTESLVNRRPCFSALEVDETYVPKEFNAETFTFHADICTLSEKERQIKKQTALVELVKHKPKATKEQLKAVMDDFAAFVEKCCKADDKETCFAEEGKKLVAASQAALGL
Settings: not given
The method, then:
(§1) Assays were also performed in 384-well plates, in which the reactions were performed using half the final volume (10 μL) and the concentration of each reagent was halved compared to those used in the 96-well plates.
(§2) Data are reported as mean values±SEM following background subtraction.
(§3) [formula] Top is the maximal response, bottom is minimal response, P is protein concentration, Kd is dissociation constant, X is ligand concentration, and Y is change in Tm. […] Comparison between protein concentrations and comparisons of calculated binding affinities between different compounds was performed using one-way analysis of variance (ANOVA) and a Tukey's post hoc test was performed to evaluate pair-wise differences. Significance between differences in values was defined as p<0.05.
(§4) Possible solvent effects were investigated for PFOA that was solubilized in each of the three solvents.
For orientation: In DSF a fluorescence change marks the thermal transition of the protein.
Sequence of bovine serum albumin (BSA) (P02769 25-607): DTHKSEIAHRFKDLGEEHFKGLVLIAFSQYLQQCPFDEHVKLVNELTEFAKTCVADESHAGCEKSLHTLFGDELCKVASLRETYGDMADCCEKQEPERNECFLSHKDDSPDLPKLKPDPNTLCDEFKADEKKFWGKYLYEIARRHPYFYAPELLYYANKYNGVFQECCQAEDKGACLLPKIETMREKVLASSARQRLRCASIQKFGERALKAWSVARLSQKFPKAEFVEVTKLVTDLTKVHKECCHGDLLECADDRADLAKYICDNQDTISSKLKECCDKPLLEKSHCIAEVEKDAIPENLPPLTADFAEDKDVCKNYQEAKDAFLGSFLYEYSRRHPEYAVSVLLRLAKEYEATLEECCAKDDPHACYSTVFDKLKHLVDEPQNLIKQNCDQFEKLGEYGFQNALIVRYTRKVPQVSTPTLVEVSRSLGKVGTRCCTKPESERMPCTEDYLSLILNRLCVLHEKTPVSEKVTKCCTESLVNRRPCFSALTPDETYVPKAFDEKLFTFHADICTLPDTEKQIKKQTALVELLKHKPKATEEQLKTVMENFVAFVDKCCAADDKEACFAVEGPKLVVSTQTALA
For the compound `O=S(=O)(O)C(F)(F)C(F)(F)C(F)(F)C(F)(F)C(F)(F)C(F)(F)C(F)(F)C(F)(F)F` [PFOS, perfluorooctanesulfonic acid], the concentration giving a half-maximal response (EC50) was determined as 1130 ± 130 µM.

Regarding `O=C(O)C(F)(F)C(F)(F)C(F)(F)C(F)(F)F` [PFPeA, perfluoropentanoic acid], the EC50 stood at 2140 ± 170 µM and the Kd is 2100 ± 230 µM.

Consider `O=C(O)CCC(F)(F)C(F)(F)C(F)(F)C(F)(F)C(F)(F)C(F)(F)C(F)(F)C(F)(F)F` [8:3 FTCA, 2,H,2H,3H,3H-Perfluoroundecanoate], for which the half-maximal effective concentration (EC50) was 1160 ± 170 µM and the Kd is 970 ± 68 µM.

Still in this data set, the particulars now being: HFPO-DA in DMSO (1:1 HBS and DMSO, room temperature 4 hours before analysis).
Turning to `O=C(O)C(F)(OC(F)(F)C(F)(F)C(F)(F)F)C(F)(F)F` (centres unmarked) [HFPO-DA, hexafluoropropylene oxide dimer acid], the EC50 worked out at 2340 ± 230 µM.

Staying with this data set, now noted: PFAS; 0.125 mM HSA; ± SEM.
Regarding `O=S(=O)(O)CCC(F)(F)C(F)(F)C(F)(F)C(F)(F)F` [4:2 FTSA, 2H,2H,3H,3H-Perfluorohexansulfonic acid], the “Δ Tm” value turned out to be 3.49 ± 0.084 °C.

For the compound `OCCC(F)(F)C(F)(F)C(F)(F)C(F)(F)C(F)(F)C(F)(F)F` [6:2 FTOH, 1H,1H,2H,2H-Perfluorooctanol], the “Δ Tm” value came out at 0 ± 0 °C.

On to `O=C(O)C(F)(F)C(F)(F)C(F)(F)C(F)(F)C(F)(F)C(F)(F)F` [PFHpA, perfluoroheptanoic acid], for which the “Δ Tm” value stood at 15.3 ± 0.29 °C.

As for `O=C(O)C(F)(F)C(F)(F)C(F)(F)C(F)(F)C(F)(F)C(F)(F)C(F)(F)C(F)(F)C(F)(F)C(F)(F)C(F)(F)F` [PFDoA, perfluorododecanoic acid], the “Δ Tm” value was found to be 7.74 ± 0.14 °C.

`O=C(O)C(F)(OC(F)(F)C(F)(F)C(F)(F)F)C(F)(F)F` (centres unmarked) [HFPO-DA, hexafluoropropylene oxide dimer acid]: the “Δ Tm” value was 13.7 ± 0.12 °C.

Turning to `O=C(O)C(F)(F)OC(F)(F)C(F)(F)OC(F)(F)C(F)(F)OC(F)(F)F` [PFO3DoDA, Perfluoro-3,6,9-trioxadecanoic acid], the “Δ Tm” value came out at 20.6 ± 0.58 °C.

As to `O=S(=O)(O)C(F)(F)C(F)(F)C(F)(F)C(F)(F)C(F)(F)C(F)(F)F` [PFHxS, perfluorohexanesulfonic acid], the “Δ Tm” value amounted to 11.0 ± 0.17 °C.

On to `FC(OC(F)(F)C(F)(F)C(F)(F)F)C(F)(F)F` (centres unmarked) [E1, 1,1,1,2,2,3,3-Heptafluoro-3-(1,2,2,2-tetrafluoroethoxy)propane], for which the “Δ Tm” value is 7.32 ± 0.042 °C.

As for `OCCC(F)(F)C(F)(F)C(F)(F)C(F)(F)F` [4:2 FTOH, 1H,1H,2H,2H-Perfluorohexane-1-ol], the “Δ Tm” value is 0 ± 0 °C.

Turning to `O=S(=O)(O)CCC(F)(F)C(F)(F)C(F)(F)C(F)(F)C(F)(F)C(F)(F)F` [6:2 FTSA, 2H,2H,3H,3H-Perfluorooctane-1-sulfonate], the “Δ Tm” value was 3.60 ± 0.33 °C.

Staying with this data set, now noted: PFAS; 4-parameter fit of Δ Tm; mean ± SEM.
As for `O=S(=O)(O)CCC(F)(F)C(F)(F)C(F)(F)C(F)(F)F` [4:2 FTSA, 2H,2H,3H,3H-Perfluorohexansulfonic acid], the half-maximal effective concentration (EC50) is 1450 ± 140 µM.

With `O=C(O)C(F)(F)C(F)(F)C(F)(F)C(F)(F)C(F)(F)C(F)(F)F` [PFHpA, perfluoroheptanoic acid], the concentration for a half-maximal effect (EC50) is 680 ± 60 µM.

Turning to `O=C(O)C(F)(F)C(F)(F)C(F)(F)C(F)(F)C(F)(F)C(F)(F)C(F)(F)C(F)(F)C(F)(F)C(F)(F)C(F)(F)F` [PFDoA, perfluorododecanoic acid], the EC50 came to 2510 ± 140 µM.

Consider `O=C(O)C(F)(OC(F)(F)C(F)(F)C(F)(F)F)C(F)(F)F` (centres unmarked) [HFPO-DA, hexafluoropropylene oxide dimer acid], for which the EC50 was determined as 1830 ± 250 µM.

As for `O=C(O)C(F)(F)OC(F)(F)C(F)(F)OC(F)(F)C(F)(F)OC(F)(F)F` [PFO3DoDA, Perfluoro-3,6,9-trioxadecanoic acid], the EC50 is 1670 ± 190 µM.

With `O=S(=O)(O)C(F)(F)C(F)(F)C(F)(F)C(F)(F)C(F)(F)C(F)(F)F` [PFHxS, perfluorohexanesulfonic acid], the EC50 turned out to be 980 ± 28 µM.

Turning to `FC(OC(F)(F)C(F)(F)C(F)(F)F)C(F)(F)F` (centres unmarked) [E1, 1,1,1,2,2,3,3-Heptafluoro-3-(1,2,2,2-tetrafluoroethoxy)propane], the EC50 amounted to 2340 ± 230 µM.

Consider `O=S(=O)(O)CCC(F)(F)C(F)(F)C(F)(F)C(F)(F)C(F)(F)C(F)(F)F` [6:2 FTSA, 2H,2H,3H,3H-Perfluorooctane-1-sulfonate], for which the EC50 amounted to 470 ± 120 µM.

Still in this data set, the particulars now being: PFAS; single site ligand binding model; mean ± SEM.
For `O=S(=O)(O)CCC(F)(F)C(F)(F)C(F)(F)C(F)(F)F` [4:2 FTSA, 2H,2H,3H,3H-Perfluorohexansulfonic acid], the Kd was 1070 ± 190 µM.

`O=C(O)C(F)(F)C(F)(F)C(F)(F)C(F)(F)C(F)(F)C(F)(F)F` [PFHpA, perfluoroheptanoic acid]: the Kd is 440 ± 80 µM.

For the compound `O=C(O)C(F)(F)C(F)(F)C(F)(F)C(F)(F)C(F)(F)C(F)(F)C(F)(F)C(F)(F)C(F)(F)C(F)(F)C(F)(F)F` [PFDoA, perfluorododecanoic acid], the dissociation constant Kd turned out to be 1890 ± 260 µM.

For `O=C(O)C(F)(OC(F)(F)C(F)(F)C(F)(F)F)C(F)(F)F` (centres unmarked) [HFPO-DA, hexafluoropropylene oxide dimer acid], the Kd was found to be 1600 ± 160 µM.

Regarding `O=C(O)C(F)(F)OC(F)(F)C(F)(F)OC(F)(F)C(F)(F)OC(F)(F)F` [PFO3DoDA, Perfluoro-3,6,9-trioxadecanoic acid], the Kd worked out at 1530 ± 140 µM.

Regarding `O=S(=O)(O)C(F)(F)C(F)(F)C(F)(F)C(F)(F)C(F)(F)C(F)(F)F` [PFHxS, perfluorohexanesulfonic acid], the Kd was 710 ± 190 µM.

Regarding `FC(OC(F)(F)C(F)(F)C(F)(F)F)C(F)(F)F` (centres unmarked) [E1, 1,1,1,2,2,3,3-Heptafluoro-3-(1,2,2,2-tetrafluoroethoxy)propane], the Kd was determined as 1640 ± 140 µM.

Regarding `O=S(=O)(O)CCC(F)(F)C(F)(F)C(F)(F)C(F)(F)C(F)(F)C(F)(F)F` [6:2 FTSA, 2H,2H,3H,3H-Perfluorooctane-1-sulfonate], the Kd was 370 ± 140 µM.

Still in this data set, the particulars now being: read-out: Human Kd ± SEM; human albumin.
For `O=S(=O)(O)CCC(F)(F)C(F)(F)C(F)(F)C(F)(F)C(F)(F)C(F)(F)F` [6:2 FTSA, 2H,2H,3H,3H-Perfluorooctane-1-sulfonate], the Kd was found to be 370 ± 140 µM.

The same data set, now with this note: result in words.
Turning to `OCCC(F)(F)C(F)(F)C(F)(F)C(F)(F)C(F)(F)C(F)(F)F` [6:2 FTOH, 1H,1H,2H,2H-Perfluorooctanol], the “bound by HSA” value is reported as “not bound by HSA”.

Turning to `OCCC(F)(F)C(F)(F)C(F)(F)C(F)(F)F` [4:2 FTOH, 1H,1H,2H,2H-Perfluorohexane-1-ol], the “bound by HSA” value is “not bound by HSA”.

System in a further data set: not given
Assay: not given
Settings: not given
Source text: as §4
In the case of `O=C(O)CCC(F)(F)C(F)(F)C(F)(F)C(F)(F)C(F)(F)C(F)(F)C(F)(F)C(F)(F)F` [8:3 FTCA, 2,H,2H,3H,3H-Perfluoroundecanoate], the aqueous solubility entry is on record as “limited aqueous solubility”.

System in the next data set: not given
Assay: not given
As to conditions: decarboxylation (Liberatore et al.); cited from earlier work.
Regarding `O=C(O)C(F)(OC(F)(F)C(F)(F)C(F)(F)F)C(F)(F)F` (centres unmarked) [HFPO-DA, hexafluoropropylene oxide dimer acid], the “stability in DMSO” value was “rapidly converted to E1”.

The target in the next data set is bovine serum albumin (BSA) (Bos taurus, UniProt P02769). Briefly: DSF thermal shift assay of bovine serum albumin binding. The note with it: read-out: Bovine Kd ± SEM; bovine albumin. The protocol:
as §1, §2, §3
Binding affinities for certain PFAS compounds were also determined using PSA, BSA, and RSA.
For `O=S(=O)(O)CCC(F)(F)C(F)(F)C(F)(F)C(F)(F)C(F)(F)C(F)(F)F` [6:2 FTSA, 2H,2H,3H,3H-Perfluorooctane-1-sulfonate], the Kd came out at 930 ± 50 µM.

Usually EC50 stands for the concentration giving half of the maximal effect. As usually defined, the Kd is the free concentration of one partner at which half of the binding sites on the other are occupied at equilibrium, for simple one-to-one binding.

The values are drawn from US12392782B2, “Characterization of protein binding to per- and polyfluoroalkyl substances” (North Carolina State University, priority 2021, dated 2025).
